Where “and” joins values, the source holds several entries; their conditions need not be identical. Equal entries are not always repeated. *1 amine or outer side, *2 acyl side, *3 side chain or, on linkers, in order; H or OH if unused. Where a SMILES comes first, the peptide text is derived from it. Bridges are numbered along the chain shown (N, C = ends). [ ]: non-standard residue; d: D form. The star is where a group is joined. Orn(4R-OH,5R-OH) = O=C([C@H](C[C@@H](O)[C@@H](O)N[*:3])N[*:1])[*:2]; Tetradecanoyl(10R,12S-Me2) = CC[C@H](C)C[C@H](C)CCCCCCCCC(=O)*; hTyr(3S-OH,4S-OH) = N[C@H](C(=O)O)[C@H](O)[C@@H](O)c1ccc(O)cc1; Gln(3R-OH) = NC(=O)C[C@@H](O)[C@H](N)C(=O)O; Pro(3S-OH) = O=C(O)[C@H]1NCC[C@@H]1O; Hyp = O=C(O)[C@@H]1C[C@@H](O)CN1

The subject of this assay is C. elegans. To be noted: Table S2, C. elegans SS assay, 110 μM, averages of 4 data points.

Regarding `O=C1C[C@@H](c2ccccc2)Oc2cc(O[C@@H]3O[C@H](CO)[C@@H](O)[C@H](O)[C@H]3O)cc(O)c21` [Pinocembrin‐7‐O‐β‐D‐glucopyranoside], the “Percentage of motility inhibition 0 h” value is recorded as 0% and the “Percentage of motility inhibition 24 h” value is recorded as 17%.
With `CCN1CCN(C(=O)N[C@@H](C(=O)N[C@@H]2C(=O)N3[C@@H]2SC(C)(C)[C@@H]3C(=O)[O-])c2ccccc2)C(=O)C1=O.[Na+]` [Piperacillin (sodium)], the “Percentage of motility inhibition 0 h” value is given as 31% and the “Percentage of motility inhibition 24 h” value is 2%.
For `C1CNCCN1.O.O.O.O.O.O` [Piperazine (hexahydrate)], the “Percentage of motility inhibition 0 h” value turned out to be 58% and the “Percentage of motility inhibition 24 h” value is 12%.
`C1CNCCN1.O=C(O)CC(O)C(=O)O` (centres unmarked) [Piperazine (malate)]: the “Percentage of motility inhibition 0 h” value amounted to 26% and the “Percentage of motility inhibition 24 h” value is 14%.
Take `C1CNCCN1.O=C(O)CCCCC(=O)O` [Piperazine adipate]: the “Percentage of motility inhibition 0 h” value is listed as 10% and the “Percentage of motility inhibition 24 h” value was 13%.
With `COc1cc(/C=C/C(=O)N2CCC=CC2=O)cc(OC)c1OC` [Piperlongumine], the “Percentage of motility inhibition 0 h” value turned out to be 0% and the “Percentage of motility inhibition 24 h” value is listed as 0%.
Consider `Cc1cc(CC(C)CC(C)(C)C)n(O)c(=O)c1.NCCO` (centres unmarked) [Piroctone olamine], for which the “Percentage of motility inhibition 0 h” value is on record as 5% and the “Percentage of motility inhibition 24 h” value worked out at 7%.
On to `CC(C)(C)C(=O)OCOC(=O)[C@@H]1N2C(=O)[C@@H](N=CN3CCCCCC3)[C@H]2SC1(C)C.Cl` [Pivmecillinam (hydrochloride)], for which the “Percentage of motility inhibition 0 h” value was 12% and the “Percentage of motility inhibition 24 h” value is given as 0%.
On to `CC1(C)CC[C@]2(C(=O)O)[C@H](O)C[C@]3(C)C(=CC[C@@H]4[C@@]5(C)C[C@H](O)[C@H](O)C(CO)(CO)[C@@H]5CC[C@]43C)[C@@H]2C1` [Platicodigenin], for which the “Percentage of motility inhibition 0 h” value was 0% and the “Percentage of motility inhibition 24 h” value is listed as 0%.
Regarding `C[C@@H]1O[C@@H](O[C@H]2[C@H](OC(=O)[C@]34CCC(C)(C)C[C@H]3C3=CC[C@@H]5[C@@]6(C)C[C@H](O)[C@H](O[C@@H]7O[C@H](CO)[C@@H](O)[C@H](O)[C@H]7O)[C@](CO)(C(=O)O)[C@@H]6CC[C@@]5(C)[C@]3(C)C[C@H]4O)OC[C@H](O)[C@@H]2O)[C@H](O)[C@H](O)[C@H]1O[C@@H]1OC[C@@H](O)[C@H](O[C@@H]2OC[C@](O)(CO)[C@H]2O)[C@H]1O` [Platyconic acid A], the “Percentage of motility inhibition 0 h” value is recorded as 0% and the “Percentage of motility inhibition 24 h” value was determined as 5%.
For the compound `CC[C@H](C)C[C@H](C)CCCCCCCCC(=O)N[C@H]1C[C@@H](O)[C@@H](O)NC(=O)[C@@H]2[C@@H](O)CCN2C(=O)[C@H]([C@H](O)CC(N)=O)NC(=O)[C@H]([C@H](O)[C@@H](O)c2ccc(O)cc2)NC(=O)[C@@H]2C[C@@H](O)CN2C(=O)[C@H]([C@@H](C)O)NC1=O` [Pneumocandin B0] ({Tetradecanoyl(10R,12S-Me2)}-[Orn(4R-OH,5R-OH)]T[Hyp][hTyr(3S-OH,4S-OH)][Gln(3R-OH)][Pro(3S-OH)]; lactam 1-C), the “Percentage of motility inhibition 0 h” value worked out at 0% and the “Percentage of motility inhibition 24 h” value stood at 0%.
With `COc1ccc(OCc2ccc(COc3c(Cl)cccc3Cl)cc2)c(Cl)c1` [Pocapavir], the “Percentage of motility inhibition 0 h” value worked out at 29% and the “Percentage of motility inhibition 24 h” value is on record as 18%.
The matching figures for `CC1(C)CCC2(C(=O)O)C(O)CC3(C)C(=CCC4C5(C)CC(O)C(O)C(C)(CO)C5CCC43C)C2C1` (centres unmarked) [Polygalacic acid]: 3% and 0%.
On to `C[C@@H]1O[C@@H](O[C@H]2[C@H](OC(=O)[C@]34CCC(C)(C)C[C@H]3C3=CC[C@@H]5[C@@]6(C)C[C@H](O)[C@H](O[C@@H]7O[C@H](CO)[C@@H](O)[C@H](O)[C@H]7O)[C@@](C)(CO)[C@@H]6CC[C@@]5(C)[C@]3(C)CC4)O[C@H](CO)[C@@H](O)[C@@H]2O)[C@H](O)[C@H](O)[C@H]1O[C@@H]1OC[C@@H](O)[C@H](O)[C@H]1O` [Polygalasaponin F], for which the “Percentage of motility inhibition 0 h” value was 5% and the “Percentage of motility inhibition 24 h” value was determined as 0%.
On to `CC1(C)CC[C@]2(C(=O)O)CCC3=C(CC[C@@H]4[C@@]5(C)C[C@H](O)[C@H](O)[C@@](C)(C(=O)O)[C@@H]5CC[C@@]34C)[C@@H]2C1` [Polygalic acid], for which the “Percentage of motility inhibition 0 h” value is given as 0% and the “Percentage of motility inhibition 24 h” value was 1%.
Regarding `C=C(CC[C@@H](C(=O)O)[C@H]1[C@H](O)C[C@@]2(C)C3=CC[C@H]4C(C)(C)C(=O)CC[C@]4(C)C3=CC[C@]12C)C(C)C` [Polyporenic acid C], the “Percentage of motility inhibition 0 h” value amounted to 30% and the “Percentage of motility inhibition 24 h” value was 12%.
Turning to `CC(=O)[C@H]1CC[C@H]2[C@@H]3CC=C4C[C@@H](OS(=O)(=O)[O-])CC[C@]4(C)[C@H]3CC[C@]12C.[Na+]` [Pregnenolone monosulfate (sodium)], the “Percentage of motility inhibition 0 h” value is 0% and the “Percentage of motility inhibition 24 h” value is recorded as 0%.
`CC(=O)C1CCC2C3CC=C4CC(OS(=O)(=O)O)CCC4(C)C3CCC12C` (centres unmarked) [Pregnenolone monosulfate]: the “Percentage of motility inhibition 0 h” value came to 0% and the “Percentage of motility inhibition 24 h” value was determined as 4%.
The matching figures for `CC(=O)[C@H]1CC[C@H]2[C@@H]3CC=C4C[C@@H](O)CC[C@]4(C)[C@H]3CC[C@]12C` [Pregnenolone]: 11% and 4%.
With `COc1cc(NC(C)CCCN)c2ncccc2c1.O=P(O)(O)O.O=P(O)(O)O` (centres unmarked) [Primaquine (Diphosphate)], the “Percentage of motility inhibition 0 h” value is 37% and the “Percentage of motility inhibition 24 h” value was 0%.
With `Oc1cc(O)c2c(c1)OC1(c3ccc(O)c(O)c3)Oc3cc(O)c4c(c3C2C1O)OC(c1ccc(O)c(O)c1)C(O)C4` (centres unmarked) [Procyanidin A1], the “Percentage of motility inhibition 0 h” value was found to be 23% and the “Percentage of motility inhibition 24 h” value came to 12%.
On to `Oc1cc(O)c2c(c1)O[C@@]1(c3ccc(O)c(O)c3)Oc3cc(O)c4c(c3[C@@H]2[C@H]1O)O[C@H](c1ccc(O)c(O)c1)[C@H](O)C4` [Procyanidin A2], for which the “Percentage of motility inhibition 0 h” value turned out to be 6% and the “Percentage of motility inhibition 24 h” value is 3%.
As for `Nc1ccc2cc3ccc(N)cc3nc2c1.Nc1ccc2cc3ccc(N)cc3nc2c1.O=S(=O)(O)O` [Proflavine (hemisulfate)], the “Percentage of motility inhibition 0 h” value worked out at 7% and the “Percentage of motility inhibition 24 h” value is listed as 16%.
Consider `CC(C)NCC(O)COc1cccc2ccccc12.Cl` (centres unmarked) [Propranolol (hydrochloride)], for which the “Percentage of motility inhibition 24 h” value was 51% and 35%.
Take `C[C@H]1O[C@@H](O[C@H]2CC[C@@]3(C)[C@@H](CC[C@]4(C)[C@@H]3C=CC3=C5CC(C)(C)CC[C@]5(CO)[C@H](O)C[C@]34C)[C@]2(C)CO)[C@H](O)[C@@H](O)[C@H]1O` [Prosaikogenin D]: the “Percentage of motility inhibition 0 h” value is 15% and the “Percentage of motility inhibition 24 h” value was determined as 54%.
The matching figures for `COC1=C(C)C(=O)O[C@]12C(=O)C(C)=C1CCCCN3[C@H]([C@@H]4C[C@H](C)C(=O)O4)CC[C@@]132` [Protostemotinine]: 0% and 22%.
The matching figures for `[Cl-].c1c2c(cc3c1OCO3)-c1cc3cc4c(cc3c[n+]1CC2)OCO4` [Pseudocoptisine (chloride)]: 0% and 14%.
Consider `CC(C)(O)[C@H]1CC[C@@](C)([C@H]2CC[C@]3(C)[C@@H]2[C@H](O)C[C@@H]2[C@@]4(C)CC[C@H](O)C(C)(C)[C@@H]4[C@@H](O[C@@H]4O[C@H](CO)[C@@H](O)[C@H](O)[C@H]4O)C[C@]23C)O1` [Pseudoginsenoside RT5], for which the “Percentage of motility inhibition 0 h” value amounted to 0% and the “Percentage of motility inhibition 24 h” value stood at 16%.
Turning to `COC(=O)C1=CC[C@@]23CC[C@@H]([C@@](C)(/C=C/C=C(\C)C(=O)O[C@@H]4O[C@H](CO)[C@@H](O)[C@H](O)[C@H]4O)OC2=O)[C@@]3(OC(C)=O)CC1` [Pseudolaric acid B β-D-glucoside], the “Percentage of motility inhibition 0 h” value is reported as 4% and the “Percentage of motility inhibition 24 h” value was found to be 0%.
The matching figures for `C=C(C)[C@@H]1CC[C@]2(C(=O)O)CC[C@]3(C)[C@H](CC[C@@H]4[C@@]5(C)CC[C@H](O[C@@H]6OC[C@H](O)[C@H](O)[C@H]6O[C@@H]6O[C@@H](C)[C@H](O)[C@@H](O)[C@H]6O)[C@@](C)(CO)[C@@H]5CC[C@]43C)[C@@H]12` [Pulchinenoside A]: 15% and 7%.
In the case of `C=C(C)[C@@H]1CC[C@]2(C(=O)O[C@@H]3O[C@H](CO[C@@H]4O[C@H](CO)[C@@H](O[C@@H]5O[C@@H](C)[C@H](O)[C@@H](O)[C@H]5O)[C@H](O)[C@H]4O)[C@@H](O)[C@H](O)[C@H]3O)CC[C@]3(C)[C@H](CC[C@@H]4[C@@]5(C)CC[C@H](O[C@@H]6OC[C@H](O)[C@H](O)[C@H]6O[C@@H]6O[C@@H](C)[C@H](O)[C@@H](O)[C@H]6O)[C@@](C)(CO)[C@@H]5CC[C@]43C)[C@@H]12` [Pulchinenoside C], the “Percentage of motility inhibition 0 h” value worked out at 4% and the “Percentage of motility inhibition 24 h” value turned out to be 0%.
For `C[C@@H]1O[C@@H](O[C@H]2[C@H](O[C@H]3CC[C@@]4(C)[C@@H](CC[C@]5(C)[C@@H]4CC=C4[C@@H]6CC(C)(C)CC[C@]6(C(=O)O)CC[C@]45C)[C@]3(C)CO)OC[C@H](O[C@@H]3O[C@H](CO)[C@@H](O)[C@H](O)[C@H]3O)[C@@H]2O)[C@H](O)[C@H](O)[C@H]1O` [Pulsatilla saponin D], the “Percentage of motility inhibition 0 h” value came to 0% and the “Percentage of motility inhibition 24 h” value came out at 0%.
`COc1ccc(C[C@H](N)C(=O)N[C@H]2[C@@H](O)[C@H](n3cnc4c(N(C)C)ncnc43)O[C@@H]2CO)cc1.Cl.Cl` [Puromycin (D ihydrochloride)]: the “Percentage of motility inhibition 0 h” value is listed as 13% and the “Percentage of motility inhibition 24 h” value was 14%.
